Measurements published in patent US20040200144A1, “Plant growth regulator and a method of producing the regulator” (Dainichiseika Color & Chemicals Mfg. Co., Ltd., priority 2003, published 2004).

Tests used:
Type in all cases: in vivo
[1] = system: onion young plants; experiment: Dwarfing test of onion young plant; conditions: for Plant Height / Dwarfing Rate: 5 ml per cell on 5th day, measured 27th day; for Dwarfing Rate: vs comparative group
Procedure: (§1) 50 g of sodium tripolyphosphate was dissolved in 400 ml of distilled water at 80° C., 17.5 g of cinnamic acid was added to the sodium tripolyphosphate solution and dissolved by stirring, the resultant solution was diluted with distilled water until the total volume of solution was 500 ml, and thus 3.5% cinnamic acid aqueous solution (pH 6.5) was prepared. The aqueous solution was further diluted with distilled water 70 times or 17.5 times, and 0.05% cinnamic acid aqueous solution and 0.2% cinnamic acid aqueous solution were prepared, respectively.
(§2) Nursery soil for house use was filled into paper joint pots (each with 24 cells: 34×43×50 mm/cell), water was sufficiently given to the soil, and seeds of carrots were sowed. After seeding, the pot was placed in the same greenhouse as described above to sprout. Subsequently, on the 5th day, the cinnamic aqueous acid solutions were added to the nursery soil in the joint pots. One of the joint pots (24 cells) was prepared as a 0.05% cinnamic acid aqueous solution addition group, and 5 ml of the 0.05% cinnamic acid aqueous solution was added to the nursery soil of each cell. Another one of the join pots was prepared as a 0.2% cinnamic acid aqueous solution addition group, and 5 ml of the 0.2% cinnamic acid aqueous solution was added to the nursery soil of each cell. The other one of the joint pots was prepared as a comparative group in which 5 ml of water is added to each cell, instead of the cinnamic acid aqueous solution. Subsequently, the cultivation of carrot young plants in each group was continued under general conditions. On the 27th day, the heights of young plants in each group were measured, the dwarfing rate (%) was calculated, and the dwarfing effect of cinnamic acid aqueous solution on carrot young plants was examined. […].
In the same way as in Example 5 except that seeds of onion were sowed, the dwarfing effect of cinnamic acid aqueous solution on onion young plants was examined. […]

[2] = system: cauliflower young plants; experiment: Dwarfing test of cauliflower young plant; conditions: for Plant Height / Dwarfing Rate: 5 ml per cell on 4th day, measured 20th day; for Dwarfing Rate: vs comparative group
Procedure: [The source words this procedure for another target and says it was used here with some conditions changed.] as §1, §2

[3] = system: newmelon young plants; experiment: Dwarfing test of newmelon young plant; conditions: for Plant Height / Dwarfing Rate: 5 ml per cell on 7th day, measured 27th day; for Dwarfing Rate: vs comparative group
Procedure: as §1, §2
In the same way as in Example 12 except that seeds of tomato were sowed, and that the cinnamic acid solutions were added to the nursery soil of the joint pot on the 7th day, the dwarfing effect of cinnamic acid aqueous solution on tomato young plants was examined. […].
In the same way as in Example 17 except that seeds of watermelon were sowed, and that plant heights were measured on the 27th day, the dwarfing effect of cinnamic acid aqueous solution on watermelon young plants was examined. […].
In the same way as in Example 21 except that seeds of newmelon were sowed, the dwarfing effect of cinnamic acid aqueous solution on newmelon young plants was examined. […]

[4] = system: watermelon young plants; experiment: Dwarfing test of watermelon young plant; conditions: for Plant Height / Dwarfing Rate: 5 ml per cell on 7th day, measured 27th day; for Dwarfing Rate: vs comparative group
Procedure: After seeding, the pot was placed in the same greenhouse as described above to sprout. Subsequently, on the 5th day, the cinnamic aqueous acid solutions were added to the nursery soil in the joint pots. One of the joint pots (24 cells) was prepared as a 0.05% cinnamic acid aqueous solution addition group, and 5 ml of the 0.05% cinnamic acid aqueous solution was added to the nursery soil of each cell. Another one of the join pots was prepared as a 0.2% cinnamic acid aqueous solution addition group, and 5 ml of the 0.2% cinnamic acid aqueous solution was added to the nursery soil of each cell. […] Subsequently, the cultivation of carrot young plants in each group was continued under general conditions. On the 27th day, the heights of young plants in each group were measured, the dwarfing rate (%) was calculated, and the dwarfing effect of cinnamic acid aqueous solution on carrot young plants was examined. From the results in Table 5, it became evident that the 0.05% and 0.2% cinnamic acid aqueous solutions are effective in dwarfing carrot young plants. In the same way as in Example 5 except that seeds of cauliflower were sowed, the cinnamic acid solutions were added to the nursery soil in the joint pot on the 4th day, and that heights of young plants in each group were measured on the 20th day, the dwarfing effect of cinnamic acid aqueous solution on cauliflower young plants was examined. From the results in Table 12, it became evident that the cinnamic acid aqueous solutions are effective in dwarfing cauliflower young plants. In the same way as in Example 12 except that seeds of tomato were sowed, and that the cinnamic acid solutions were added to the nursery soil of the joint pot on the 7th day, the dwarfing effect of cinnamic acid aqueous solution on tomato young plants was examined. From the results in Table 17, it became evident that the cinnamic acid aqueous solutions are effective in dwarfing tomato young plants. In the same way as in Example 17 except that seeds of watermelon were sowed, and that plant heights were measured on the 27th day, the dwarfing effect of cinnamic acid aqueous solution on watermelon young plants was examined. From the results in Table 21, it became evident that the cinnamic acid aqueous solutions are effective in dwarfing watermelon young plants.

[5] = system: qing-geng-cai young plants; experiment: Dwarfing test of qing-geng-cai young plant; conditions: for Plant Height / Dwarfing Rate: 5 ml per cell on 5th day, measured 20th day; for Dwarfing Rate: vs comparative group
Procedure: as §1, §2
In the same way as in Example 5 except that seeds of […] were sowed, and that plant heights were measured on the 20th day, the dwarfing effect of cinnamic acid aqueous solution on qing-geng-cai young plants was examined. […]

[6] = system: green onion young plants; experiment: Dwarfing test of green onion young plant; conditions: for Plant Height / Dwarfing Rate: 5 ml per cell on 5th day, measured 27th day; for Dwarfing Rate: vs comparative group
Procedure: as §1, §2
In the same way as in Example 5 except that seeds of green onion were sowed, the dwarfing effect of cinnamic acid aqueous solution on green onion young plants was examined. […]

Structure (SMILES): O=C(O)C=Cc1ccccc1 [cinnamic acid]
- Plant Height ([1]; 0.05% aqueous solution): 8.0 cm
- Dwarfing Rate ([1]; 0.05% aqueous solution): 15.8%
- Plant Height ([1]; 0.2% aqueous solution): 7.5 cm
- Dwarfing Rate ([1]; 0.2% aqueous solution): 21.1%
- dwarfing effect ([1]; onion young plants, 0.05% and 0.2% aqueous solutions): effective
- Plant Height ([2]; 0.05% aqueous solution): 6.8 cm
- Dwarfing Rate ([2]; 0.05% aqueous solution): 22.7%
- Plant Height ([2]; 0.2% aqueous solution): 5.0 cm
- Dwarfing Rate ([2]; 0.2% aqueous solution): 43.2%
- dwarfing effect ([2]; cauliflower young plants, 0.05% and 0.2% aqueous solutions): effective
- Plant Height ([3]; 0.05% aqueous solution): 7.3 cm
- Dwarfing Rate ([3]; 0.05% aqueous solution): 6.4%
- Plant Height ([3]; 0.2% aqueous solution): 4.9 cm
- Dwarfing Rate ([3]; 0.2% aqueous solution): 37.2%
- dwarfing effect ([3]; newmelon young plants, 0.05% and 0.2% aqueous solutions): effective
- Plant Height ([4]; 0.05% aqueous solution): 9.3 cm
- Dwarfing Rate ([4]; 0.05% aqueous solution): 15.5%
- Plant Height ([4]; 0.2% aqueous solution): 7.9 cm
- Dwarfing Rate ([4]; 0.2% aqueous solution): 28.2%
- dwarfing effect ([4]; watermelon young plants, 0.05% and 0.2% aqueous solutions): effective
- Plant Height ([5]; 0.05% aqueous solution): 6.3 cm
- Dwarfing Rate ([5]; 0.05% aqueous solution): 7.4%
- Plant Height ([5]; 0.2% aqueous solution): 4.3 cm
- Dwarfing Rate ([5]; 0.2% aqueous solution): 36.8%
- dwarfing effect ([5]; qing-geng-cai young plants, 0.05% and 0.2% aqueous solutions): effective
- Plant Height ([6]; 0.05% aqueous solution): 7.2 cm
- Dwarfing Rate ([6]; 0.05% aqueous solution): 25.8%
- Plant Height ([6]; 0.2% aqueous solution): 5.6 cm
- Dwarfing Rate ([6]; 0.2% aqueous solution): 42.3%
- dwarfing effect ([6]; green onion young plants, 0.05% and 0.2% aqueous solutions): effective
